Data taken from US11466273B2, “Monocarboxylate transporter 4 (MCT4) antisense oligonucleotide (ASO) inhibitors for use as therapeutics in the treatment of cancer” (THE UNIVERSITY OF BRITISH COLUMBIA, priority 2015, dated 2022).

Legend:
[1] = system: subcutaneous PC-3 tumours; experiment: Treatment of PC-3 tumour-bearing nude mice with MCT4 ASO; format: in vivo; details: for host toxicity (animal weights and behaviour) / growth of PC-3 tumours: 10 mg/kg intraperitoneal; for host toxicity (animal weights and behaviour): 15 days; for growth of PC-3 tumours: daily for 5 days, 2 days off, total 15 days; for MCT4 protein expression in tumour / cell apoptosis, cleaved-caspase 3 staining / cell proliferation, Ki-67 staining: tumour tissue IHC
Experimental: PC-3 cells ([…] cells in 1:1 HBSS:Matrigel) were injected subcutaneously into both flanks of 24 male athymic nude mice (Simonsen Laboratories™, Gilroy, Calif.). Once the mean tumour volume had reached approximately 100 mm3, mice were randomized into four groups and treated with intraperitoneal injections of MCT4 ASO #1 (SEQ ID NO: 1), #14 (SEQ ID NO: 5), control ASO, or vehicle (PBS) at 10 mg/kg daily for 5 days followed by 2 days off treatment for a total of 15 days. The health of the mice was monitored throughout the study by measuring body weights and checking for abnormal behaviour such as lethargy, lack of hydration, and additional signs of weakness. Tumour size was measured twice weekly and tumour volume calculated using the formula: Volume=Length×width×depth×0.5236 (mm3). Mice were sacrificed 1 hour after the final dose for tissue harvesting.
Tumour tissue was formalin-fixed and paraffin-embedded for immunohistochemical analysis. Tissues were sectioned, probed, and stained with DAB (Sigma™) as previously described (Wang et al., 2005). […] For MCT4, images of five random fields at 200× magnification were taken per tumour and staining intensity was assessed by percentage scoring, using the formula: Intensity=(% area score 3)×3+(% area score 2)×2+(% area score 1)×1. The extent of immune cell aggregation was quantified following CD31 staining by imaging the five most prominent regions of aggregates per tumour at 200× magnification and determining the percent area of the field they occupied. The proportions of immune cells were evaluated as the area of positive staining normalized to the area occupied by immune cell aggregates in the same five prominent regions.

[2] = system: TRAMPC2 prostate cancer cells; experiment: TRAMPC2 cell proliferation after ASO transfection; format: cell-based, mouse; details: up to highest tested concentration of 200 nM
Experimental: (§1) Cell viability was assessed by trypan blue exclusion.
(§2) Cells were transfected in 6-well plates with ASOs at 100 nM for 48 hours (unless otherwise indicated) using Oligofectamine™ (Invitrogen™, Carlsbad, Calif.) or with MCT4-targeting siRNAs and controls (Dharmacon™, Chicago, Ill.) at 50 nM for 48 hours using Lipofectamine™ 2000 (Invitrogen™), following the manufacturer's instructions.

MCT4 mRNA = experiment: MCT4 expression (mRNA, protein) in PC-3 cells after ASO transfection; format: cell-based, human; details: for MCT4 protein levels, time course: 96 hours; for inhibition of MCT4 expression, screening of ten MCT4 ASOs: qPCR and Western blot, 48 hours; for IC50: transfection of 5 nM to 200 nM, read-out: IC50 reduction of MCT4 mRNA levels
Experimental: as §2
(§3) Total RNA was isolated using the RNeasy Mini Kit™ (Qiagen Inc.™, Hilden, Germany) and cDNA synthesized using the QuantiTect Reverse Transcription Kit™ (Qiagen™). Primers were designed using Primer-BLAST™. qRT-PCR reactions using KAPA SYBR Fast Universal™ (Kapa Biosystems™, Woburn, Mass.) were performed in triplicate in a ViiA 7 Real-Time PCR™ system (Applied Biosystems™, Foster City, Calif.). Target genes were normalized to a geometric average of 3 internal reference genes (Vandesompele et al., 2002).
Cells were harvested and lysed in RIPA buffer (50 mM Tris-Cl pH 7.4, 150 mM NaCl, 1% Igepal, 0.5% Na-deoxycholate, 0.1% SDS) supplemented with a complete protease inhibitor cocktail (Roche, Nutley, N.J.). The protein concentration of the lysate was determined by Pierce BCA Protein Assay™ (Thermo Scientific™, Waltham, Mass.). The lysate was run on 8% SDS polyacrylamide gel (20 ug of protein per lane) and proteins were transferred onto PVDF membrane (Millipore™, Billerica, Mass.). The blot was blocked with the Odyssey™ blocking buffer (Li-cor Biosciences™) and probed with anti-MCT4 antibody. Vinculin was used as a loading control. Following overnight incubation at 4° C., the primary antibody was probed with the corresponding secondary antibody and detected using the Odyssey Infrared Imaging System™ (Li-cor Biosciences™) and Image Studio Version 3.1™ (Li-cor Biosciences™). Densitometry analysis was done using ImageJ (U.S. National Institutes of Health, Bethesda, Md.).

PC-3 cells [3] = experiment: Lactate and glucose determination in PC-3 cells; format: cell-based, human; details: after 48 hours of transfection
Experimental: PC-3 cells transfected with ASOs for 48 hours were assessed for lactate and glucose levels. Cells were incubated with fresh media for 4 hours. A sample of the media was then taken and deproteinated with 10K Spin Columns™ (BioVision™, Milpitas, Calif.) prior to determination of lactate concentration using Lactate Assay Kit (BioVision) and glucose concentration using Glucose Assay Kit™ (BioVision™). Intracellular lactate levels were determined by lysing ASO-transfected cells in MQH2O. Final concentrations were determined by normalizing to the total number of live cells.

PC-3 cells [4] = experiment: qPCR of glycolysis and lactic acid conversion genes in PC-3 cells; format: cell-based, human
Experimental: as §3

[5] = system: DU145 prostate cancer cells; experiment: DU145 cell proliferation after ASO transfection; format: cell-based, human; details: compared with PC-3 and C4-2
Experimental: as §1, §2

PC3 cells = experiment: Combination screening, total live PC3 cell numbers; format: cell-based, human; details: approximate IC50 used for combination screening, 48 hours; read-out: IC50 Concentration
From the text: Human PC-3 and DU145 CRPC cells, human LNCaP prostate cancer cells, and mouse TRAMPC2 prostate cancer cells were purchased from the American Type Culture Collection (ATCC); C4-2 CRPC cells were from the Vancouver Prostate Centre, Vancouver, BC, Canada. Human monolayer cultures were maintained in RPMI-1640 (GE Healthcare Hyclone™, Logan, Utah) supplemented with 10% fetal bovine serum (FBS) (GE Healthcare Hyclone™, Logan, Utah) while TRAMPC2 cells were maintained in DMEM (GE Healthcare Hyclone™, Logan, Utah) supplemented with 5% FBS. For cell counting, cells were trypsinized to form a single cell suspension and counted using a TC20 Automated Cell Counter (Bio-Rad, Hercules, Calif.). Cell viability was assessed by trypan blue exclusion.
Various combination strategies were screened at the approximate IC50 concentrations to determine whether synergistic effects may be found by combining current cancer therapeutics (see TABLE D) with MCT4 ASO SEQ ID NO:5. In FIGS. 10 A-C, the total live PC3 cell numbers were assessed 48 hours after treatment with Metformin, Doxycycline and docetaxel both alone and in combination with MCT4 ASO SEQ ID NO:5.

mouse MCT4 = experiment: Mouse MCT4 expression in TRAMPC2 cells after ASO transfection; format: cell-based; details: up to 200 nM
Experimental: as §2
as §3, with “Target genes were normalized to a geometric average of 3 internal reference genes (Vandesompele et al., 2002).” left out
(§4) Cells were harvested and lysed in RIPA buffer (50 mM Tris-Cl pH 7.4, 150 mM NaCl, 1% Igepal, 0.5% Na-deoxycholate, 0.1% SDS) supplemented with a complete protease inhibitor cocktail (Roche, Nutley, N.J.). The protein concentration of the lysate was determined by Pierce BCA Protein Assay™ (Thermo Scientific™, Waltham, Mass.). […] Following overnight incubation at 4° C., the primary antibody was probed with the corresponding secondary antibody and detected using the Odyssey Infrared Imaging System™ (Li-cor Biosciences™) and Image Studio Version 3.1™ (Li-cor Biosciences™). […]

PC-3 cells [6] = experiment: PC-3 cell proliferation after ASO/siRNA transfection; format: cell-based, human; details: for inhibition of PC-3 cell proliferation, screening of ten MCT4 ASOs: 100 nM, 48 hours; for inhibition of cell proliferation, time course: 96 hours post-transfection; for IC50: transfection of 5 nM to 200 nM, read-out: IC50 inhibition of PC-3 cell proliferation
Experimental: as §1, §2

MCT4 [7] = experiment: MCT4 expression in DU145 cells after ASO transfection; format: cell-based, human; details: compared with PC-3 and C4-2
Experimental: as §2
as §3, with “Target genes were normalized to a geometric average of 3 internal reference genes (Vandesompele et al., 2002).” left out
as §4

C4-2 CRPC cells = experiment: C4-2 CRPC cell proliferation after ASO transfection; format: cell-based, human; details: read-out: IC50 inhibition of C4-2 cell proliferation
Experimental: as §1, §2

MCT4 [8] = experiment: MCT4 expression in C4-2 cells after ASO transfection; format: cell-based, human; details: read-out: IC50 reduction of MCT4 expression
Experimental: as §2
as §3, with “Target genes were normalized to a geometric average of 3 internal reference genes (Vandesompele et al., 2002).” left out
as §4

AGATGCAGAAGACCACGAGG (chemistry not given here; listed as Homo sapiens) [SEQ ID No. 5]
host toxicity (animal weights and behaviour) [1]: without inducing major host toxicity
growth of PC-3 tumours [1]: markedly inhibited
MCT4 protein expression in tumour [1]: decrease in MCT4 protein expression
cell apoptosis, cleaved-caspase 3 staining [1]: increase in cell apoptosis
cell proliferation, Ki-67 staining [1]: decrease in cell proliferation
reduction in TRAMPC2 cell proliferation [2]: did not lead to a significant reduction
MCT4 protein levels, time course (MCT4 mRNA): remained low
inhibition of MCT4 expression, screening of ten MCT4 ASOs (MCT4 mRNA): greatest potency
IC50 (MCT4 mRNA): 32 nM
glucose consumption (PC-3 cells [3]): extensive decrease
intracellular lactate (PC-3 cells [3]): accumulation
lactic acid secretion (PC-3 cells [3]): marked inhibition
expression of glycolysis genes GAPDH, PGK1, PGAM1 and ENO1 (PC-3 cells [4]): down regulation
expression of lactate dehydrogenase A (LDHA) (PC-3 cells [4]): depressed
expression of pyruvate dehydrogenase kinase-1 (PDK1) (PC-3 cells [4]): decreased expression
inhibitory effect on DU145 cell proliferation [5]: almost identical IC50 values
IC50 (PC3 cells): 50 nM
reduction in mouse MCT4 expression (mouse MCT4): did not lead to a significant reduction
inhibition of PC-3 cell proliferation, screening of ten MCT4 ASOs (PC-3 cells [6]): greatest potency
inhibition of cell proliferation, time course (PC-3 cells [6]): maintained the inhibition of cell proliferation
IC50 (PC-3 cells [6]): 26 nM
inhibitory effect on MCT4 expression in DU145 cells (MCT4 [7]): almost identical IC50 values
IC50 (C4-2 CRPC cells): 27 nM
IC50 (MCT4 [8]): 26 nM

TCCCATGGCCAGGAGGGTTG (chemistry not given here; listed as Homo sapiens) [SEQ ID No. 1]
host toxicity (animal weights and behaviour) [1]: without inducing major host toxicity
growth of PC-3 tumours [1]: markedly inhibited
MCT4 protein expression in tumour [1]: decrease in MCT4 protein expression
cell apoptosis, cleaved-caspase 3 staining [1]: increase in cell apoptosis
cell proliferation, Ki-67 staining [1]: decrease in cell proliferation
reduction in TRAMPC2 cell proliferation [2]: did not lead to a significant reduction
MCT4 protein levels, time course (MCT4 mRNA): remained low
inhibition of MCT4 expression, screening of ten MCT4 ASOs (MCT4 mRNA): greatest potency
IC50 (MCT4 mRNA): 50 nM
glucose consumption (PC-3 cells [3]): extensive decrease
intracellular lactate (PC-3 cells [3]): accumulation
lactic acid secretion (PC-3 cells [3]): marked inhibition
expression of glycolysis genes GAPDH, PGK1, PGAM1 and ENO1 (PC-3 cells [4]): down regulation
expression of lactate dehydrogenase A (LDHA) (PC-3 cells [4]): depressed
expression of pyruvate dehydrogenase kinase-1 (PDK1) (PC-3 cells [4]): decreased expression
inhibitory effect on DU145 cell proliferation [5]: almost identical IC50 values
reduction in mouse MCT4 expression (mouse MCT4): did not lead to a significant reduction
inhibition of PC-3 cell proliferation, screening of ten MCT4 ASOs (PC-3 cells [6]): greatest potency
inhibition of cell proliferation, time course (PC-3 cells [6]): maintained the inhibition of cell proliferation
IC50 (PC-3 cells [6]): 50 nM
inhibitory effect on MCT4 expression in DU145 cells (MCT4 [7]): almost identical IC50 values
IC50 (C4-2 CRPC cells): 40 nM
IC50 (MCT4 [8]): 50 nM
